In patent US5149632A, “Method for the detection of molds in foodstuffs and human and animal body fluids” (De Staat Der Nedelranden Vertengwoordigd Door De Minister …, priority 1988, dated 1992):

Tests used:
[1] = target: rabbit anti-EPS antibodies; experiment: competition ELISA: inhibition of binding of rabbit antibodies to EPS (FIG. 3); settings: binding of antibodies evoked in rabbits to EPS; for 50 per cent inhibition concentration: FIG. 3, EPS species not stated
Procedure: (§1) The inhibition characteristics were determined using a "competition" enzyme-linked immunosorbent assay (ELISA). Microtiter polyvinyl wells (Cooke, Dynatech) were coated with polysaccharides which had been isolated from culture fluids of moulds. For this purpose 0.1 ml of 0.07 M phosphate buffer, pH 7.2, with 0.15 M NaCl (PBS) and 1 μg polysaccharide were added to each well of the plate. After incubating for one night with shaking at 20° C., the wells were washed under a continuous stream of tap water with 0.05% Tween 20 for 0.5 min. A prepared mixture of 50 μl antibodies (rabbit IgG and human sera respectively), diluted in PBS, which contained 0.05% Tween 20 and 2% bovine serum albumin, and 50 μl inhibitor, which was diluted in the same buffer, were then added. After an incubation time of 60 minutes the wells were washed in the manner described above. The quantity of antibodies which was absorbed on the polysaccharides was determined with sheep-anti-rabbit-globulins and with sheep-anti-human-globulins respectively which were conjugated to peroxidase. For this purpose 0.1 ml conjugate diluted in PBS, which contained 0.05% Tween 20, was added to each well (dilution was checked using the checker board titration). The incubation and the washing were carried out in the manner described for the prepared test sample (mixture of serum or IgG and inhibitor).
(§2) The enzyme reaction was determined spectrophotometrically at 449 nm after adding a solution of 5-amino-salicylic acid and H2 O2 (0.1 ml 0.07% 5-amino-salicylic acid, pH 6.0, and 0.005% H2 O2 were added to each well) and an incubation for 30 minutes at 20° C.
The human serum and rabbit IgG solutions were diluted to concentrations at which the extinction coefficients without inhibitor start to decrease (extinction value approximately 0.70). Methyl-β-D-galactofuranoside and the dimers to heptamers inclusive of (1-5)-coupled β-D-galactofuranosides were used as inhibitors. […] The percentage inhibition was calculated as 100--100 (extinction with inhibitor - extinction without inhibitor).

[2] = test system: human antibody binding to extracellular polysaccharides of Penicillium and Aspergillus species; experiment: competition ELISA: inhibition of human antibody binding of 40 serum samples to EPS; settings: 40 human serum samples
Procedure: A total of 40 serum samples were collected arbitrarily from healthy Dutch males and females aged between 15 and 65.
as §1, §2
The human serum and rabbit IgG solutions were diluted to concentrations at which the extinction coefficients without inhibitor start to decrease (extinction value approximately 0.70). Methyl-β-D-galactofuranoside and the dimers to heptamers inclusive of (1-5)-coupled β-D-galactofuranosides were used as inhibitors. The inhibition effect of dimers of (1-2)-, (1-3)- and (1-6)-coupled β-D-galactofuranoside was also investigated (see Table B). The percentage inhibition was calculated as 100--100 (extinction with inhibitor - extinction without inhibitor).
The inhibition of the human antibody binding to EPS of moulds was tested with 40 serum samples using the tetramer of (1-5)-coupled β-D-galactofuranoside as inhibitor. The EPS in these tests originated from P. digitatum, P. cyclopium, P. dierckxii, P. funiculosum, A. niger, A. fumigatus and A. repens. Antibodies against P. funiculosum were not detectable in any serum sample, while antibodies against the other EPS derivatives were present in all 40 serum samples. The titers (reciprocal value of the dilution which gives the extinction equal to the mean value for 10 blank samples+2.81×standard deviation of these blank samples; confidence limit 99%), were in a range from 400 to 6,000. There was a significant correlation 99%) between the presence of antibodies in each serum and against the various Penicillium/Aspergillus EPS derivatives which were tested (Spearman Rank correlation test).

rabbit IgG anti-EPS = experiment: specific inhibition test in sandwich ELISA on walnut and herb samples; assay type: binding; settings: 50 μg/ml inhibitor
Procedure: A sandwich ELISA was used to ascertain whether (1-5)-coupled β-D-galactofuranosyl radicals were capable of binding antibodies. 0.1 ml portions containing 10 μg/ml rabbit IgG anti-EPS, which was diluted in PBS, were introduced into wells of polyvinyl plates and incubated overnight with shaking at 20° C. After washing in the manner described above, 0.1 ml samples containing β-(1-5)coupled galactofuranosyl radicals in PBS with 0.05% Tween 20 and 2% bovine serum albumin were added. After an incubation time of 60 minutes the plates were washed. 0.1 ml of an optimum dilution (=dilution was checked using the checker board titration) of rabbit IgG anti-EPS, conjugated with peroxidase, diluted in PBS with 0.05% Tween 20 was then added to each well. The incubation and the washing were carried out in the manner described above. The enzyme reaction was also determined in the manner described above.
In addition an immunological determination, described under (F), of Penicillium and Aspergillus species was carried out on 16 samples of walnuts and 9 samples of herbs, use being made of rabbit IgG and, respectively 50 μg/ml of a framer of (1-5)-coupled β-D-galactofuranoside per test sample. The EPS antigen possibly present in the abovementioned products was extracted by boiling with a phosphate-buffered physiological saline solution.

CO[C@@H]1O[C@@H]([C@H](O)CO)[C@H](O)[C@H]1O [monomer, Methyl β-D-galactofuranoside]
50 per cent inhibition concentration [1]: approximately 10,000 μg/ml

tetramer of (1-5)-coupled β-D-galactofuranoside
concentration giving complete inhibition (100%) [1]: 100 µg/mL | 50 per cent inhibition concentration [1]: 30 µg/mL | Number of samples with an inhibition of 25% ([2]; inhibitor 4 μg/ml): 15 | Number of samples with an inhibition of 50% ([2]; inhibitor 4 μg/ml): 0 | Number of samples with an inhibition of 90% ([2]; inhibitor 4 μg/ml): 0 | Number of samples with an inhibition of 25% ([2]; inhibitor 20 μg/ml): 34 | Number of samples with an inhibition of 50% ([2]; inhibitor 20 μg/ml): 12 | Number of samples with an inhibition of 90% ([2]; inhibitor 20 μg/ml): 0 | Number of samples with an inhibition of 25% ([2]; inhibitor 100 μg/ml): 36 | Number of samples with an inhibition of 50% ([2]; inhibitor 100 μg/ml): 32 | Number of samples with an inhibition of 90% ([2]; inhibitor 100 μg/ml): 0 | Number of samples with an inhibition of 25% ([2]; inhibitor 500 μg/ml): 37 | Number of samples with an inhibition of 50% ([2]; inhibitor 500 μg/ml): 36 | Number of samples with an inhibition of 90% ([2]; inhibitor 500 μg/ml): 15 | Number of samples with inhibition >50% (rabbit IgG anti-EPS; Herbs, 4 samples, ELISA titer >50,000): 4 | Number of samples with inhibition >50% (rabbit IgG anti-EPS; Herbs, 5 samples, ELISA titer 5000-50,000): 5 | Number of samples with inhibition >50% (rabbit IgG anti-EPS; Nuts, 3 samples, ELISA titer 100-500): 3 | Number of samples with inhibition >50% (rabbit IgG anti-EPS; Nuts, 4 samples, ELISA titer 5000-50,000): 4 | Number of samples with inhibition >50% (rabbit IgG anti-EPS; Nuts, 9 samples, ELISA titer 500-5000): 7
